Measurements reported in the NIST ThermoML archive (doi:10.1021/je400055v).

Experiment: xn = mol fraction of the nth substance listed
Details: Liquid, Vibrating tube method

CCCCCCCCCCC [undecane] + CCCCCCC
Details	mass density [kg/m3]
343.03 K, 20000 kPa, x2 = 0.7482	682.7
343.03 K, 21000 kPa, x2 = 0.7482	683.6
343.03 K, 22000 kPa, x2 = 0.7482	684.5
343.03 K, 23000 kPa, x2 = 0.7482	685.4
343.03 K, 24000 kPa, x2 = 0.7482	686.2
343.03 K, 25000 kPa, x2 = 0.7482	687.1
343.06 K, 1010 kPa, x2 = 0.2346	693.6
343.06 K, 2010 kPa, x2 = 0.2346	694.6
343.06 K, 3010 kPa, x2 = 0.2346	695.7
343.06 K, 4011 kPa, x2 = 0.2346	696.7
343.06 K, 5011 kPa, x2 = 0.2346	697.7
343.06 K, 6011 kPa, x2 = 0.2346	698.7
343.06 K, 7012 kPa, x2 = 0.2346	699.7
343.06 K, 8012 kPa, x2 = 0.2346	700.6
343.06 K, 9012 kPa, x2 = 0.2346	701.6
343.06 K, 10013 kPa, x2 = 0.2346	702.5
343.06 K, 11013 kPa, x2 = 0.2346	703.5
343.06 K, 12014 kPa, x2 = 0.2346	704.4
343.06 K, 13014 kPa, x2 = 0.2346	705.3
343.06 K, 14014 kPa, x2 = 0.2346	706.2
343.06 K, 15015 kPa, x2 = 0.2346	707
343.06 K, 16016 kPa, x2 = 0.2346	707.9
343.06 K, 17016 kPa, x2 = 0.2346	708.8
343.06 K, 18017 kPa, x2 = 0.2346	709.6
343.06 K, 19017 kPa, x2 = 0.2346	710.4
343.06 K, 20018 kPa, x2 = 0.2346	711.3
343.06 K, 21051 kPa, x2 = 0.2346	712.1
343.06 K, 22053 kPa, x2 = 0.2346	712.9
343.06 K, 23055 kPa, x2 = 0.2346	713.7
343.06 K, 24057 kPa, x2 = 0.2346	714.5
343.06 K, 25059 kPa, x2 = 0.2346	715.2
352.9 K, 1001 kPa, x2 = 0.9511	636.9
352.9 K, 2000 kPa, x2 = 0.9511	638.4
352.9 K, 3000 kPa, x2 = 0.9511	639.8
352.9 K, 4000 kPa, x2 = 0.9511	641.1
352.9 K, 5000 kPa, x2 = 0.9511	642.5
352.9 K, 6000 kPa, x2 = 0.9511	643.8
352.9 K, 7000 kPa, x2 = 0.9511	645.1
352.9 K, 8000 kPa, x2 = 0.9511	646.4
352.9 K, 9000 kPa, x2 = 0.9511	647.7
352.9 K, 10000 kPa, x2 = 0.9511	648.9
352.9 K, 11000 kPa, x2 = 0.9511	650.1
352.9 K, 12000 kPa, x2 = 0.9511	651.3
352.9 K, 13000 kPa, x2 = 0.9511	652.5
352.9 K, 14001 kPa, x2 = 0.9511	653.6
352.9 K, 15001 kPa, x2 = 0.9511	654.8
352.9 K, 16000 kPa, x2 = 0.9511	655.9
352.9 K, 17001 kPa, x2 = 0.9511	657
352.9 K, 18001 kPa, x2 = 0.9511	658
352.9 K, 19000 kPa, x2 = 0.9511	659.1
352.9 K, 20000 kPa, x2 = 0.9511	660.1
352.9 K, 21001 kPa, x2 = 0.9511	661.2
352.9 K, 22000 kPa, x2 = 0.9511	662.2
352.9 K, 23001 kPa, x2 = 0.9511	663.2
352.9 K, 24000 kPa, x2 = 0.9511	664.1
352.9 K, 25000 kPa, x2 = 0.9511	665.1
352.96 K, 1001 kPa, x2 = 0.05	694
352.96 K, 2001 kPa, x2 = 0.05	695.1
352.96 K, 2001 kPa, x2 = 0.5063	672.2
352.96 K, 3000 kPa, x2 = 0.05	696.1
352.96 K, 3000 kPa, x2 = 0.5063	673.4
352.96 K, 4000 kPa, x2 = 0.05	697.2
352.96 K, 4000 kPa, x2 = 0.5063	674.6
352.96 K, 5000 kPa, x2 = 0.05	698.2
352.96 K, 5000 kPa, x2 = 0.5063	675.7
352.96 K, 6000 kPa, x2 = 0.05	699.2
352.96 K, 6000 kPa, x2 = 0.5063	676.8
352.96 K, 7000 kPa, x2 = 0.05	700.2
352.96 K, 7000 kPa, x2 = 0.5063	677.9
352.96 K, 8001 kPa, x2 = 0.05	701.2
352.96 K, 8001 kPa, x2 = 0.5063	679
352.96 K, 9000 kPa, x2 = 0.05	702.2
352.96 K, 9000 kPa, x2 = 0.5063	680.1
352.96 K, 10000 kPa, x2 = 0.05	703.2
352.96 K, 10000 kPa, x2 = 0.5063	681.2
352.96 K, 11000 kPa, x2 = 0.05	704.1
352.96 K, 11000 kPa, x2 = 0.5063	682.2
352.96 K, 12000 kPa, x2 = 0.05	705.1
352.96 K, 12000 kPa, x2 = 0.5063	683.2
352.96 K, 13000 kPa, x2 = 0.05	706
352.96 K, 13000 kPa, x2 = 0.5063	684.2
352.96 K, 14000 kPa, x2 = 0.05	706.9
352.96 K, 14000 kPa, x2 = 0.5063	685.2
352.96 K, 15000 kPa, x2 = 0.05	707.8
352.96 K, 15000 kPa, x2 = 0.5063	686.2
352.96 K, 16000 kPa, x2 = 0.05	708.7
352.96 K, 16000 kPa, x2 = 0.5063	687.2
352.96 K, 17000 kPa, x2 = 0.05	709.6
352.96 K, 17001 kPa, x2 = 0.5063	688.1
352.96 K, 18000 kPa, x2 = 0.05	710.4
352.96 K, 18000 kPa, x2 = 0.5063	689.1
352.96 K, 19000 kPa, x2 = 0.05	711.3
352.96 K, 19000 kPa, x2 = 0.5063	690
